According to patent US12439945B2, “Method of improving flavor of a composition of (D)-β-hydroxybutyric acid and (D)-1,3 butanediol and use as a nutritional supplement and therapeutic agent” (VitaNav, Inc., priority 2020, dated 2025):

Test: Circulating ketone level and ketotic efficiency after administration of D-BHB, D-BHV and D-1,3BD in various ratios to subjects at rest
Assay type: in vivo, human
Settings: based on measured plasma levels of FIG. 1
Source text: Examples include using a composition including D-BHB, D-BHV, and D-1,3BD in a subject at rest. The ketotic efficiency represents the net elevation of circulating ketones a ketone supplement affects over time in an individual. Ketotic efficiency may be represented as: Σt=0^n(mMol/L)/(g/kg)*t where mMol/L is the concentration of circulating β-hydroxybutyrate in the blood, g is the total dose of the combined D-BHB, D-BHV, and D-1,3,BD in grams, kg is the mass of the individual in kilograms, and t is an increment of time in minutes.
While this example pertains to a fasted subject at rest, the relative utility of blended vs pure constituents has also been observed in fed and active subjects.
As illustrated by the examples of FIG. 1, these exemplary compositions can advantageously elevate circulating ketones by approximately two times greater than other known compositions. Such a composition can sustain ketonemia for longer than either D-BHB or D-1,3BD can when ingested alone by a subject of a given weight as shown by the 100% line (i.e., contains D-BHB, but not D-1,3BD) and the 0% line (i.e., contains only D-1,3BD, but not D-BHB).
As shown in the following table, the increase in circulating ketone level with a 10 g dose in three human subjects at rest was maximal at between 45-55% D-BHB in the tested compositions. […]

Compound | prolonged rise of blood ketone levels
CC(O)CCO [D-1,3BD, (D)-1,3 butanediol] | does not cause a prolonged rise of blood ketone levels
CC(O)CC(=O)O [D-BHB, (D)-β-hydroxybutyric acid] | A similar result was obtained
